Experimental data reported in patent US11149018B2, “Substituted N-arylethyl-2-aminoquinoline-4-carboxamides and use thereof” (Bayer Aktiengesellschaft, priority 2017, dated 2021).

The compounds below were run against FP receptor (Homo sapiens (Human), UniProt P43088) (assay: In vitro test of inhibition of human FP receptor activity (PGF2α-induced calcium flux in FP-expressing CHEM1 cells)). Conditions: PGF2α 2 nM, some mean values of multiple determinations.
Assay type: cell-based
Description: B-1. In Vitro Test of Inhibition of Human FP Receptor Activity
For the characterization of test substances in respect of FP antagonism, PGF2α-induced calcium flux in FP-expressing CHEM1 cells (Millipore, HTS093C) was used.
10 μl of the prediluted substance solution are added to the Fluo-8-laden cells and incubated at 37° C., 5% CO2 for 10 minutes. The FP receptor is activated by adding 40 μl of 2 nM (final concentration) PGF2α in calcium-free Tyrode, 2 mM CaCl2, 0.002% SmartBlock, and the calcium flux is determined by measuring the fluorescence at ex. 470 nm/[…].
Table 1 below lists the IC50 values from this assay for individual working examples of the invention (some as mean values from multiple independent individual determinations): […]

FP receptor, sequence (P43088 whole entry): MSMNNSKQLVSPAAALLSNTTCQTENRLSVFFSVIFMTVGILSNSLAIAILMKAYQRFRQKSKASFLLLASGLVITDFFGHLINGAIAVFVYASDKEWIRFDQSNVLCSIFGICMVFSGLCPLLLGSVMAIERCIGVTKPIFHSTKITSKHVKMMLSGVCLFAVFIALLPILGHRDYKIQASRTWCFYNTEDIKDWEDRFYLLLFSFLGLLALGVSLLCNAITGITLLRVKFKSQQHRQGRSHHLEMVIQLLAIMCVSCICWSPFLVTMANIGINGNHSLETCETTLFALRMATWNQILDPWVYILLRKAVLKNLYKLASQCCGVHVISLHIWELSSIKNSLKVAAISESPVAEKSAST

IC50 | Compound
450 nM | CCCCNc1nc2ccc(Br)cc2c(C(=O)NCC(CCC(=O)O)c2ccccc2Cl)c1C (racemic) [Example 101, (+/−)-5-({[6-Bromo-2-(butylamino)-3-methylquinolin-4-yl]carbonyl}amino)-4-(2-chlorophenyl)pentanoic acid]
250 nM | Cc1c(NCC(C)C)nc2ccc(Br)cc2c1C(=O)NCC(CCC(=O)O)c1ccccc1Cl (racemic) [Example 102, (+/−)-5-({[6-Bromo-2-(isobutylamino)-3-methylquinolin-4-yl]carbonyl}amino)-4-(2-chlorophenyl)pentanoic acid]
340 nM | Cc1c(NC2CCCC2)nc2ccc(Br)cc2c1C(=O)NCC(CCC(=O)O)c1ccccc1Cl (racemic) [Example 103, (+/−)-5-({[6-Bromo-2-(cyclopentylamino)-3-methylquinolin-4-yl]carbonyl}amino)-4-(2-chlorophenyl)pentanoic acid]
410 nM | COCCNc1nc2ccc(Br)cc2c(C(=O)NCC(CCC(=O)O)c2ccccc2Cl)c1C (racemic) [Example 104, (+/−)-5-[({6-Bromo-2-[(2-methoxyethyl)amino]-3-methylquinolin-4-yl}carbonyl)amino]-4-(2-chlorophenyl)pentanoic acid]
860 nM | CCNc1nc2ccc(Br)cc2c(C(=O)NCC(CCC(=O)O)c2ccccc2Cl)c1C (racemic) [Example 109, (+/−)-5-({[6-Bromo-2-(ethylamino)-3-methylquinolin-4-yl]carbonyl}amino)-4-(2-chlorophenyl)pentanoic acid]
24 nM | Cc1c(N2CCCC3(CC3)C2)nc2ccc(Br)cc2c1C(=O)NCC(CCC(=O)O)c1ccccc1Cl (racemic) [Example 110, (+/−)-5-({[2-(5-Azaspiro[2.5]oct-5-yl)-6-bromo-3-methylquinolin-4-yl]carbonyl}amino)-4-(2-chlorophenyl)pentanoic acid]
6.4 nM | Cc1c(N2CCCCC2)nc2ccc(Br)cc2c1C(=O)NCC(CCC(=O)O)c1ccccc1C(F)(F)F (racemic) [Example 111, (+/−)-5-({[6-Bromo-3-methyl-2-(piperidin-1-yl)quinolin-4-yl]carbonyl}amino)-4-[2-(trifluoromethyl)phenyl]pentanoic acid]
14 nM | Cc1c(N2CCCC2)nc2ccc(Br)cc2c1C(=O)NCC(CCC(=O)O)c1ccccc1C(F)(F)F (racemic) [Example 114, (+/−)-5-({[6-Bromo-3-methyl-2-(pyrrolidin-1-yl)quinolin-4-yl]carbonyl}amino)-4-[2-(trifluoromethyl)phenyl]pentanoic acid]
16 nM | Cc1c(N2CCCC(F)(F)C2)nc2ccc(Br)cc2c1C(=O)NCC(CCC(=O)O)c1ccccc1C(F)(F)F (racemic) [Example 117, (+/−)-5-({[6-Bromo-2-(3,3-difluoropiperidin-1-yl)-3-methylquinolin-4-yl]carbonyl}amino)-4-[2-(trifluoromethyl)phenyl]pentanoic acid]
11 nM | Cc1c(N2CCCCCC2)nc2ccc(Br)cc2c1C(=O)NCC(CCC(=O)O)c1ccccc1C(F)(F)F (racemic) [Example 120, (+/−)-5-({[2-(Azepan-1-yl)-6-bromo-3-methylquinolin-4-yl]carbonyl}amino)-4-[2-(trifluoromethyl)phenyl]pentanoic acid]
1.7 nM | Cc1c(N2CCCCC2)nc2ccc(Br)cc2c1C(=O)NCC(CCC(=O)O)c1ccccc1OC(F)(F)F (racemic) [Example 126, (+/−)-5-({[6-Bromo-3-methyl-2-(piperidin-1-yl)quinolin-4-yl]carbonyl}amino)-4-[2-(trifluoromethoxy)phenyl]pentanoic acid]
6.1 nM | Cc1c(N2CCCC2)nc2ccc(Br)cc2c1C(=O)NCC(CCC(=O)O)c1ccccc1OC(F)(F)F (racemic) [Example 129, (+/−)-5-({[6-Bromo-3-methyl-2-(pyrrolidin-1-yl)quinolin-4-yl]carbonyl}amino)-4-[2-(trifluoromethoxy)phenyl]pentanoic acid]
3 nM | Cc1c(N2CCCCCC2)nc2ccc(Br)cc2c1C(=O)NCC(CCC(=O)O)c1ccccc1OC(F)(F)F (racemic) [Example 135, (+/−)-5-({[2-(Azepan-1-yl)-6-bromo-3-methylquinolin-4-yl]carbonyl}amino)-4-[2-(trifluoromethoxy)phenyl]pentanoic acid]
5.8 nM | Cc1c(N2CCCCC2)nc2ccc(Br)cc2c1C(=O)NCC(CCC(=O)O)c1cccc(F)c1Cl (racemic) [Example 141, (+/−)-5-({[6-Bromo-3-methyl-2-(piperidin-1-yl)quinolin-4-yl]carbonyl}amino)-4-(2-chloro-3-fluorophenyl)pentanoic acid]
2.2 nM | Cc1c(N2CCCCC2)nc2ccc(Br)cc2c1C(=O)NCC(CCC(=O)O)c1c(Cl)ccc(F)c1F (racemic) [Example 144, (+/−)-5-({[6-Bromo-3-methyl-2-(piperidin-1-yl)quinolin-4-yl]carbonyl}amino)-4-(6-chloro-2,3-difluorophenyl)pentanoic acid]
8 nM | Cc1ccc(F)cc1C(CCC(=O)O)CNC(=O)c1c(C)c(N2CCCCC2)nc2ccc(Br)cc12 (racemic) [Example 147, (+/−)-5-({[6-Bromo-3-methyl-2-(piperidin-1-yl)quinolin-4-yl]carbonyl}amino)-4-(5-fluoro-2-methylphenyl)pentanoic acid]
22 nM | Cc1ccc(F)cc1C(CCC(=O)O)CNC(=O)c1c(C)c(N2CCCC(F)(F)C2)nc2ccc(Br)cc12 (racemic) [Example 150, (+/−)-5-({[6-Bromo-2-(3,3-difluoropiperidin-1-yl)-3-methylquinolin-4-yl]carbonyl}amino)-4-(5-fluoro-2-methylphenyl)pentanoic acid]
3.4 nM | Cc1c(N2CCCC2)nc2ccc(Br)cc2c1C(=O)NCC(CCC(=O)O)c1c(F)ccc(F)c1Cl (racemic) [Example 154, (+/−)-5-({[6-Bromo-3-methyl-2-(pyrrolidin-1-yl)quinolin-4-yl]carbonyl}amino)-4-(2-chloro-3,6-difluorophenyl)pentanoic acid]
3 nM | Cc1c(N2CCCC(F)(F)C2)nc2ccc(Br)cc2c1C(=O)NCC(CCC(=O)O)c1c(F)ccc(F)c1Cl (racemic) [Example 155, (+/−)-5-({[6-Bromo-2-(3,3-difluoropiperidin-1-yl)-3-methylquinolin-4-yl]carbonyl}amino)-4-(2-chloro-3,6-difluorophenyl)pentanoic acid]
5.3 nM | Cc1c(N2CCCCC2)nc2ccc(Br)cc2c1C(=O)NCC(CCC(=O)O)c1c(F)cccc1C(F)(F)F (racemic) [Example 160, (+/−)-5-({[6-Bromo-3-methyl-2-(piperidin-1-yl)quinolin-4-yl]carbonyl}amino)-4-[2-fluoro-6-(trifluoromethyl)phenyl]pentanoic acid]
11 nM | Cc1c(N2CCCC2)nc2ccc(Br)cc2c1C(=O)NCC(CCC(=O)O)c1c(F)cccc1C(F)(F)F (racemic) [Example 163, (+/−)-5-({[6-Bromo-3-methyl-2-(pyrrolidin-1-yl)quinolin-4-yl]carbonyl}amino)-4-[2-fluoro-6-(trifluoromethyl)phenyl]pentanoic acid]
9.5 nM | Cc1c(N2CCCC(F)(F)C2)nc2ccc(Br)cc2c1C(=O)NCC(CCC(=O)O)c1c(F)cccc1C(F)(F)F (racemic) [Example 166, (+/−)-5-({[6-Bromo-2-(3,3-difluoropiperidin-1-yl)-3-methylquinolin-4-yl]carbonyl}amino)-4-[2-fluoro-6-(trifluoromethyl)phenyl]pentanoic acid]
9.4 nM | Cc1c(N2CCCCC2)nc2ccc(Br)cc2c1C(=O)NCC(CCC(=O)O)c1c(Cl)ccc(Cl)c1Cl (racemic) [Example 171, (+/−)-5-({[6-Bromo-3-methyl-2-(piperidin-1-yl)quinolin-4-yl]carbonyl}amino)-4-(2,3,6-trichlorophenyl)pentanoic acid]
11 nM | Cc1c(N2CCCC2)nc2ccc(Br)cc2c1C(=O)NCC(CCC(=O)O)c1c(Cl)ccc(Cl)c1Cl (racemic) [Example 174, (+/−)-5-({[6-Bromo-3-methyl-2-(pyrrolidin-1-yl)quinolin-4-yl]carbonyl}amino)-4-(2,3,6-trichlorophenyl)pentanoic acid]
10 nM | Cc1c(N2CCCC(F)(F)C2)nc2ccc(Br)cc2c1C(=O)NCC(CCC(=O)O)c1c(Cl)ccc(Cl)c1Cl (racemic) [Example 177, (+/−)-5-({[6-Bromo-2-(3,3-difluoropiperidin-1-yl)-3-methylquinolin-4-yl]carbonyl}amino)-4-(2,3,6-trichlorophenyl)pentanoic acid]
2.9 nM | Cc1c(N2CCCCC2)nc2ccc(Br)cc2c1C(=O)NCC(CCC(=O)O)c1c(F)cccc1OC(F)F (racemic) [Example 182, (+/−)-5-({[6-Bromo-3-methyl-2-(piperidin-1-yl)quinolin-4-yl]carbonyl}amino)-4-[2-(difluoromethoxy)-6-fluorophenyl]pentanoic acid]
3.2 nM | CCC1CCCN(c2nc3ccc(Br)cc3c(C(=O)NCC(CCC(=O)O)c3cc(F)ccc3F)c2C)C1 (racemic) [Example 225, 5-[({6-Bromo-2-[3-ethylpiperidin-1-yl]-3-methylquinolin-4-yl}carbonyl)amino]-4-(2,5-difluorophenyl)pentanoic acid]
1.8 nM | CCC1CCCN(c2nc3ccc(Br)cc3c(C(=O)NCC(CCC(=O)O)c3cc(F)ccc3F)c2C)C1 (racemic) [Example 226, (−)-5-[({6-Bromo-2-[3-ethylpiperidin-1-yl]-3-methylquinolin-4-yl}carbonyl)amino]-4-(2,5-difluorophenyl)pentanoic acid]
